Laboratory results: patent US20140357512A1, “HISTONE DEACETYLASE (HDAC) BIOMARKERS IN MULTIPLE MYELOMA” (priority 2013, published 2014)

Tested on: human myeloma cell line MM.1S
Experiment: SILAC acetylated-lysine peptide profiling, HDAC inhibitor vs DMSO (light/heavy ratio)
Type: cell-based
From the text: An embodiment of the invention comprises utilizing the SILAC method in order to quantitate changes in protein expression between two or more populations of cells. The SILAC method is a technique based on mass spectrometry that detects differences in protein abundance among samples using non-radioactive isotopic labeling. The SILAC method is known in the art, and described in detail in Ong et al., “Stable Isotope Labeling by Amino Acids in Cell Culture, SILAC, as a Simple and Accurate Approach to Expression Proteomics”, Molecular & Cellular Proteomics, vol. 1, pp. 376-386 (2002), which is incorporated herein by reference in its entirety.
Briefly, the SILAC method involves growing two populations of cells in cell culture. The first population of cells is grown in growth media containing normal amino acids (“normal media”). The second population of cells is grown in media lacking a standard essential amino acid (such as lysine), but is then supplemented with a non-radioactive, isotopically labeled form of that essential amino acid (such as lysine labeled with ^13C atoms, rather than normal ^12C atoms), which is called “heavy media”. When the two populations of cells are each growing in the medium, they incorporate the amino acids into all of their proteins. The growth of cells maintained in the heavy media is no different from that in normal media. All peptides containing the heavy amino acids are heavier than their normal counterparts. The cells from each of the two populations of cells are lysed. The lysates from each of the two cell populations are then combined. The combined cell lysates are then analyzed by mass spectrometry. Pairs of chemically identical peptides of different stable isotope composition can be differentiated in a mass spectrometer due to their difference in mass. The ratio of peak intensities in the mass spectrum for such peptide pairs reflects the abundance ratio for the two proteins.
This example describes SILAC studies that were performed to compare the effects of three different HDAC inhibitors (Compound A, Compound B, and tubastatin A) to a control on a human multiple myeloma cell line. The HDAC inhibitors were also compared amongst themselves to determine differences in their effects.
A human myeloma cell line MM.1S was grown using either ^12C (light) or ^13C (heavy) lysine containing culture medium. The “heavy” cells were treated with DMSO as the control, and the “light” cells were treated with a single HDAC inhibitor at 37° C. for 6 hours. The heavy and light cells were lysed, and the lysates were mixed in 1:1 ratio and digested with the protease trypsin. The acetylated lysine containing peptides (due to the action of the HDAC inhibitor) in the digested peptide pool were captured by a non-specific anti-acetylated lysine antibody cocktail (the antibodies identify both light and heavy acetylated peptides), and subjected to mass spectrometry analysis in order to identify thousands of individual peptides.
Thousands of peptides were identified in pairs (^12C and ^13C) due to their known mass differences. The amino acid sequence and quantitative ratio (Light/Heavy) of a given peptide in two differentially treated cell lysates were then determined and annotated with their possible protein (gene) sources.
As stated above, three HDAC inhibitors (Compound A, Compound B, and Tubastatin A) were used. Thus, the SILAC method was performed three times, with a different HDAC inhibitor compared to a control each time. Accordingly, there are three pairs of quantitative data in the table below, i.e., Compound A:DMSO, Compound B:DMSO, and Tubastatin A:DMSO. A cut-off of 1.30 fold of change (increase or decrease) was then used to determine “changed” or “+” in the table, and any peptides with a fold of change less than 1.3 fold were determined to be “unchanged” or “0” in the table. Those peptides that were not identified were marked as “NA” in the table. […]

Q: How did the “light to heavy ratio (L/H ratio) of acetylated peptide […](ac)FLK (SEQ ID NO: 326)” value (Isoform 5 of Transcriptional regulator ATRX [812], ATRX, drug:DMSO) turn out when `O=C(CCCCCCNC(=O)c1cnc(N(c2ccccc2)c2ccccc2)nc1)NO` [Compound A, 2-(diphenylamino)-N-(7-(hydroxyamino)-7-oxoheptyl)pyrimidine-5-carboxamide] was run?
A: The value was 0.00 log 2.

Q: And the “light to heavy ratio (L/H ratio), log 2 scale, acetylated peptide YNDPIYVK(ac)LEK (SEQ ID NO: 764)” value (Isoform A of AP-1 complex subunit beta-1 [335], gene AP1B1, drug:DMSO)?
A: Its value is 0.93.

Q: What about the “light to heavy ratio (L/H ratio) of acetylated peptide K(ac)VLFTCFK (SEQ ID NO: 529)” value (Isoform Beta-2 of DNA topoisomerase 2-beta [749], gene TOP2B, inhibitor:DMSO) of the same molecule?
A: The value was −0.42 log 2.

Q: And the “light to heavy ratio (L/H ratio) of acetylated peptide K(ac)SSETLR (SEQ ID NO: 601)” value (Isoform CNPI of 23-cyclic-nucleotide 3-phosphodiesterase [177], gene CNP, inhibitor:DMSO)?
A: The value was 0.46 log 2.

Q: What about the “light to heavy ratio (L/H ratio) of acetylated peptide MVAAAK(ac)YAR (SEQ ID NO: 324)” value (Isoform Heart of ATP synthase subunit gamma mitochondrial [55], ATP5C1, drug:DMSO) of the same molecule?
A: Its value is 0.00 log 2.

Q: And the “light to heavy ratio (L/H ratio), log 2 scale, acetylated peptide VNK(ac)EVER (SEQ ID NO: 782)” value (Isoform Long of ES1 protein homolog mitochondrial [157], gene C21orf33, drug:DMSO)?
A: Its value is 1.00.

Q: And the “light to heavy ratio (L/H ratio) of acetylated peptide EFHQAGK(ac)[…] (SEQ ID NO: 623)” value (Isoform Long of ES1 protein homolog mitochondrial [171], gene C21orf33, inhibitor:DMSO)?
A: Its value is 0.48 log 2.

Q: And the “light to heavy ratio (L/H ratio) of acetylated peptide […](ac)R (SEQ ID NO: 588)” value (Isoform Long of Spectrin beta chain brain 1 [497], gene SPTBN1, inhibitor:DMSO)?
A: The value was 0.44 log 2.

Q: What about the “light to heavy ratio (L/H ratio) of acetylated peptide NLHSK(ac)WLK (SEQ ID NO: 589)” value (Isoform Long of Spectrin beta chain brain 1 [1312], gene SPTBN1, inhibitor:DMSO) of the same molecule?
A: Its value is 0.44 log 2.

Q: And the “light to heavy ratio (L/H ratio) of acetylated peptide VPNDK(ac)YYGAQTVR (SEQ ID NO: 625)” value (Isoform Mitochondrial of Fumarate hydratase mitochondrial [66], gene FH, inhibitor:DMSO)?
A: Its value is 0.49 log 2.

Q: And the “light to heavy ratio (L/H ratio) of acetylated peptide MMVAGFK(ac)K (SEQ ID NO: 339)” value (Isoform Short of Heterogeneous nuclear ribonucleoprotein U [524], HNRNPU, drug:DMSO)?
A: The value was 0.00 log 2.

Q: And the “light to heavy ratio (L/H ratio) of acetylated peptide APQCLGK(ac)FIEIAAR (SEQ ID NO: 338)” value (Isoform Short of Heterogeneous nuclear ribonucleoprotein U [546], HNRNPU, drug:DMSO)?
A: The value was 0.00 log 2.

Q: What about the “light to heavy ratio (L/H ratio) of acetylated peptide LLEQYK(ac)EESK (SEQ ID NO: 302)” value (Isoform Short of Heterogeneous nuclear ribonucleoprotein U [651], HNRNPU, drug:DMSO) of the same molecule?
A: The value was 0.89 log 2.

Q: What about the “light to heavy ratio (L/H ratio) of acetylated peptide, log 2 scale” value (K(ac)[…] (SEQ ID NO: 246), Endoplasmin [270], HSP90B1) of the same molecule?
A: The value was −0.54.

Q: And the “light to heavy ratio (L/H ratio), log 2 scale, acetylated peptide (ac)[…](ac)GAGK (SEQ ID NO: 801)” value (KRR1 small subunit processome component homolog [11], gene KRR1, drug:DMSO)?
A: The value was 1.00.

Q: And the “light to heavy ratio (L/H ratio) of acetylated peptide, log 2 scale” value (KTPCGEGSK(ac)TWDR (SEQ ID NO: 245), 40S ribosomal protein S20 [75], SNORD54, RPS20)?
A: The value was −0.69.

Q: And the “light to heavy ratio (L/H ratio) of acetylated peptide IVADK(ac)DYSVTANSK (SEQ ID NO: 317)” value (L-lactate dehydrogenase B chain [82], LDHB, drug:DMSO)?
A: The value was 1.00 log 2.

Q: And the “L/H ratio of acetylated peptide” value (LAK(ac)LSDGVAVLK (SEQ ID NO: 484), 60 kDa heat shock protein mitochondrial [396], HSPD1)?
A: The value was 0.61 log 2.

Q: What about the “L/H ratio of acetylated peptide” value (LALQK(ac)QLTK (SEQ ID NO: 495), Isoform 2 of Zinc finger protein 385C [103], ZNF385C) of the same molecule?
A: Its value is −1.00 log 2.

Q: What about the “L/H ratio of acetylated peptide IHLEIK(ac)QLNR (SEQ ID NO: 57)” value (LMAN1 [346], log 2 scale, drug vs DMSO) of the same molecule?
A: The value was 0.00.

Q: What about the “L/H ratio of acetylated peptide” value (LMK(ac)YGDSLYR (SEQ ID NO: 499), Nucleolar GTP-binding protein 1 [118], GTPBP4) of the same molecule?
A: Its value is −0.78 log 2.

Q: And the “L/H ratio of acetylated peptide LYK(ac)[…] (SEQ ID NO: 4)” value (LMNB1 [261], log 2 scale, drug vs DMSO)?
A: Its value is 0.00.

Q: What about the “L/H ratio of acetylated peptide […](ac)LENAR (SEQ ID NO: 58)” value (LMNB1 [271], log 2 scale, drug vs DMSO) of the same molecule?
A: The value was 0.00.

Q: And the “L/H ratio of acetylated peptide GFGYK(ac)GSCFHR (SEQ ID NO: 59)” value (LOC390956 [71], log 2 scale, drug vs DMSO)?
A: The value was 0.00.

Q: And the “L/H ratio of acetylated peptide” value (LTLDK(ac)LDVK (SEQ ID NO: 485), Phosphoglycerate kinase 1 [11], PGK1)?
A: The value was 0.65 log 2.

Q: What about the “L/H ratio of acetylated peptide” value (LVDTGDK(ac)FR (SEQ ID NO: 478), Isoform Long of Spectrin beta chain brain 1 [1913], SPTBN1) of the same molecule?
A: The value was −0.46 log 2.

Q: What about the “L/H ratio of acetylated peptide” value (LVSEK(ac)LASYQAAR (SEQ ID NO: 476), Isoform 2 of Myc proto-oncogene protein [163], MYC) of the same molecule?
A: The value was −0.82 log 2.

Q: What about the “light to heavy ratio (L/H ratio) of acetylated peptide, log 2 scale” value (LYATMEK(ac)HK (SEQ ID NO: 251), Histone acetyltransferase p300 [1590], EP300) of the same molecule?
A: Its value is −0.43.

Q: And the “light to heavy ratio (L/H ratio) of acetylated peptide AVLK(ac)[…] (SEQ ID NO: 262)” value (Laminin receptor-like protein LAMRL5 [89], SNORA6, RPSAP15, SNORA62, RPSA, drug:DMSO)?
A: The value was 0.41 log 2.

Q: What about the “light to heavy ratio (L/H ratio) of acetylated peptide IHDVLCK(ac)LVEK (SEQ ID NO: 613)” value (Leucine-rich PPR motif-containing protein mitochondrial [864], gene LRPPRC, inhibitor:DMSO) of the same molecule?
A: Its value is 0.47 log 2.

Q: And the “light to heavy ratio (L/H ratio) of acetylated peptide SYVSEK(ac)DVTSAK (SEQ ID NO: 628)” value (Leucine-rich PPR motif-containing protein mitochondrial [1332], gene LRPPRC, inhibitor:DMSO)?
A: Its value is 0.49 log 2.

Q: What about the “L/H ratio of acetylated peptide ICCQFDFK(ac)R (SEQ ID NO: 60)” value (MAN2A1 [373], log 2 scale, drug vs DMSO) of the same molecule?
A: Its value is 0.00.

Q: What about the “L/H ratio of acetylated peptide YLTNQK(ac)NSNSK(ac)NDR (SEQ ID NO: 17)” value (MEAF6 [69:74], log 2 scale, drug vs DMSO) of the same molecule?
A: The value was 1.00.

Q: What about the “L/H ratio of acetylated peptide TLVLSDK(ac)HSPQK(ac)K (SEQ ID NO: 5)” value (MLL3 [2809:2814], log 2 scale, drug vs DMSO) of the same molecule?
A: The value was 0.00.

Q: What about the “light to heavy ratio (L/H ratio) of acetylated peptide VHLSQK(ac)YK (SEQ ID NO: 343)” value (Matrin-3 [473], MATR3, SNHG4, drug:DMSO) of the same molecule?
A: The value was 0.00 log 2.

Q: And the “light to heavy ratio (L/H ratio) of acetylated peptide FLNK(ac)LAEER (SEQ ID NO: 342)” value (Matrin-3 [836], MATR3, SNHG4, drug:DMSO)?
A: The value was 0.00 log 2.
